Source: US11352382B2, “Mito-lonidamine, compositions and methods of use” (THE MEDICAL COLLEGE OF WISCONSIN, INC., priority 2018, dated 2022)
pIC50: −log10 of the molar value.

How the values were obtained:
[1] = system: PC9BrM3 and H2030BrM3 brain metastasis lung cancer cell lines; test: Boyden chamber (transwell) invasion assay; assay type: cell-based; conditions: Homo sapiens, H2030-BrM3; LON 100 μM alone; read-out: inhibitory effect on invasion when used alone
From the text: Mito-LON inhibits migration and invasion of brain metastatic human lung cancer cells. To investigate the potential of Mito-LON and LON for lung cancer metastasis, we first tested its effects in vitro via the Boyden chamber invasion assay using PC9BrM3 and H2030BrM3 brain metastasis lung cancer cell lines.

HK2 = HK2 protein levels and mRNA expression in lung cancer lines; assay type: cell-based, human
Description: (§1) In contrast, Mito-LON (1.2-2.7 μM) targets mitochondrial complexes I and II (FIG. 9); its mitochondrial effects are supported by the compartment-selective oxidation of mitochondrial Prx3 (FIG. 13). The anti-proliferative effects of Mito-LON and LON were compared in H2030BrM3 cells.
Role of HK2 and additional possible signaling events that contribute to the effects of Mito-LON. […] This could contribute to their effects as many cancers have constitutive ERK activation which promotes survival and proliferation, and ERK1 can play an important role in regulating mitochondrial activity, apoptosis, proliferation and migration. […] AKT is another pro-survival factor that is constitutively activated (phosphorylated) in many cancers.

Pancreatic cancer cells = test: Anti-proliferative effects in pancreatic cancer cells (number of cells over time); assay type: cell-based, human; conditions: Pancreatic cancer cell; in vitro; b60 words: cancer cells (human pancreatic cancer, lung cancer and brain metastasis); read-out: IC50, inhibiting the proliferation of cancer cells
Description: Pancreatic cancer cells were treated with either LND or Mito-LND at varying concentrations and the number of cells was assayed over time.

H2030BrM3 cells [2] = test: Cellular ROS production, HPLC-based analysis of hydroethidine (HE) oxidation; assay type: cell-based, human; conditions: 200 μM, H2030BrM3 cells
From the text: Inhibition of mitochondrial respiration results in increased O2^⋅− and other oxidants.

[3] = at clinically relevant concentrations (<130 μM); cited from earlier work
[4] = system: mitochondrial complexes I and II; test: Inhibition of mitochondrial complexes I and II, stated jointly; assay type: cell-based, human
From the text: LON and Mito-LON inhibit mitochondrial complex I activity. Mito-LON inhibited cellular respiration (oxygen consumption rate, OCR) at >100-fold lower concentration than LON in intact lung cancer cells (FIG. 9). Both basal respiration and the response to mitochondrial stressors (oligomycin, dinitrophenol) were diminished by Mito-LON (not shown). To investigate the mechanism of mitochondrial inhibition, we measured the activity of mitochondrial complexes in H2030BrM3 cells (NSCLC cell line). The cell membrane was permeabilized, and OCR was measured upon addition of substrates and inhibitors of mitochondrial complexes I-IV (FIG. 9A). These studies established the optimal use of permeabilized cells for complex activity assays.^54 Next, cells were pretreated with LON and Mito-LON for 24 h and experiments performed as in FIG. 9A. […] We hypothesize that inhibition of mitochondrial complexes I and II is the predominant mechanism for antiproliferative effects of Mito-LON on lung cancer cells.

H2030BrM3 cells [5] = test: Cell proliferation, IncuCyte Live-Cell Imaging Analyzer (cell confluence); assay type: cell-based; conditions: Homo sapiens, H2030-BrM3; H2030BrM3 cells, IncuCyte, FIG. 14; read-out: IC50, cell proliferation
Description: as §1

[6] = patients; cited from earlier work
[7] = system: H2030BrM3 orthotopic lung adenocarcinoma in nude mice; test: Orthotopic lung tumor mouse model; assay type: in vivo; conditions: 7.5 μmol/kg oral gavage 5 times/wk for 3 wks, nude mice
Description: Inhibitory effects of Mito-LON in an orthotopic lung tumor mouse model. We conducted a pilot study using an orthotopic model of lung adenocarcinoma (H2030BrM3 cells) in nude mice. Cells (1×10^6 cells/50 μg of growth factor-reduced Matrigel in 50 μL of RPMI-1640) were injected into the lung. One week after injection, mice were treated with the same dose of LON or Mito-LON (7.5 μmol/kg), or vehicle (corn oil), by oral gavage 5 times/wk for 3 wks.

- pIC50 (HK2; FIG. 17, read-out: IC50, ability to decrease HK2 levels): 3.82 to 4.00
- pIC50 (Pancreatic cancer cells): 3.49
- pIC50 (H2030BrM3 cells [5]): 3.85
Compound: O=C(O)c1nn(Cc2ccc(Cl)cc2Cl)c2ccccc12 [LON, 1-(2,4-dichlorobenzyl)-1H-indazole-3-carboxylic acid, reference compound]
- inhibition at 100 µM [1]: < 10%
- HK2 levels (HK2; both lung cancer lines, within 3-6 h): decreased HK2 levels
- decrease of HK2 mRNA expression (HK2; not shown): > 80%
- intracellular levels of 2-OH-E+ (superoxide-specific product of HE oxidation) (H2030BrM3 cells [2]): increase
- effectiveness by itself in vitro [3]: only moderately effective
- concentration at which effects on complex I and II occur [4]: ca. 400 μM
- pIC50 ([4]; pretreatment of H2030BrM3 cells, read-out: IC50, inhibition of complex I and II): ~3.40
- typical peak plasma levels [6]: 17 to 127 µM
- efficacy in orthotopic lung tumor model [7]: not effective
